In patent US5759836A, “Osteoarthritis-associated inducable isoform of nitric oxide synthetase” (priority 1995, dated 1998):
Entries after “also recorded” stand apart in the source; their conditions may differ.

How the values were obtained:
[1] = system: human iNOS; details: crude lysates; cited from earlier work
[2] = system: human chondrocyte NOS; details: cited from earlier work
[3] = system: iNOS; experiment: Nitrite accumulation in LPS-stimulated RAW 264.7 murine macrophages (Griess method); type: cell-based; details: Mus musculus, RAW264.7; 30 μM; read-out: block of nitrite accumulation
Experimental: Effects of NSAIDs on Nitrite Accumulation. […] The expression and activity of iNOS were monitored by estimation of the stable end-product: nitrites.
concentrations of NSAIDs for 2 h followed by addition of 100 ng/ml of LPS
After 16-18 h of incubation, the medium was used to estimate the
accumulation of nitrite by the Greiss method (Green et al., Anal Biochem.
The specific activity of iNOS was determined in cellfre
extracts at a given time period as described. The nitrite and specific
activity data are representative of mean ± SD value, as determined by
student t test, for 10 and 4 independent experiments, respectively. The p
values described are compared with LPSstimulated cells. […]

[4] = system: OA-NOS; experiment: Nitrite release by OA-affected articular cartilage, ex vivo organ culture; type: cell-based, human; details: Homo sapiens; cycloheximide 35 μM or PDTC 30 μM, 24 h; cytokine/endotoxin-induced and control cartilage; read-out: block of nitrite accumulation
[5] = system: human iNOS; experiment: Sensitivity of human iNOS to PDTC
[6] = system: murine iNOS; experiment: Sensitivity of murine iNOS to PDTC
[7] = system: NF-κB; details: 30 μM; cited from earlier work
[8] = system: OA-NOS; experiment: Sensitivity of OA-NOS to agents (Table 3 comparison)
[9] = system: calmodulin; experiment: Calmodulin binding of NOS isoforms
Experimental: Extraction of Human Chondrocyte NOS and Western Blotting. Slices from articular cartilage affected by OA were frozen at -70° C., milled to fine particulate in liquid nitrogen, and sequentially extracted (10 ml/gram wet weight tissue) with neutral salt buffer (Tris HCl:saline) containing protease inhibitors (1 mM PMSF, 2 mM N-ethylmaleimide, and 0.025 mg/ml leupeptin), followed with the same buffer containing 10 mM EDTA, with 4 M guanidine-HCl, and then with a detergent buffer containing 10% SDS with protease inhibitors. Samples were run on 9% or 4-15% gradient SDS-PAGE gels under non-reducing conditions, transferred to nitrocellulose, and Western blotted with α-iNOS/α-ncNOS or α-calmodulin mAb (Cho et al., J. Exp. Med. 176:599-604, 1992). Bound antibody was detected by a secondary antibody conjugated with horseradish peroxidase, and developed using the ECL Western blotting system (Amersham, Arlington Heights, Ill.) on Kodak Xomatic X-ray film.

In the case of O=C(O)CN(CCOCCOCCN(CC(=O)O)CC(=O)O)CC(=O)O [EGTA], the “human iNOS activity” value [1] is listed as “markedly reduces” and the “enzyme activity in cell-free extracts” value [2] is listed as “no effect on enzyme activity”.

For S=C(S)N1CCCC1 [PDTC, pyrrolidine dithiocarbamate], the inhibition at 30 µM [3] was greater than 90%, the inhibition at 30 µM [4] was greater than 90% and the “effect on human iNOS” value [5] was “not human iNOS”. The “effect on murine iNOS” value [6] was “blocks murine iNOS”, the “inhibition of NF-κB as component of iNOS transcription/expression” value [7] was “inhibited” and the “sensitivity of OA-NOS” value [8] was “blocked; also recorded: shows sensitivity”.

For “human hepatocyte iNOS: obtained from NIH 3T3 fibroblasts transduced with a retrovirus carrying the human hepatocyte iNOS cDNA”, the Calmodulin binding [9] was “complexed with calmodulin”.
